Data from US7456214B2, “Chromene-containing compounds with anti-tubulin and vascular targeting activity” (Baylor University, priority 2004, dated 2008).
Values after ≈ are worked out from the molar mass of the structure shown. Where a name gives a salt, the structure may show the parent alone.

Tests used:
purified tubulin = test: In vitro inhibition of tubulin polymerization; assay type: biochemical, bovine; conditions: 1.5 mg/ml tubulin, 15 min preincubation at 37° C., GTP-induced, 350 nm
Experimental: IC50 values for tubulin polymerization were determined according to a previously described procedure (Bai et al., Cancer Research, 1996). Purified tubulin is obtained from bovine brain cells as previously described (Hamel and Lin, Biochemistry, 1984). Various amounts of inhibitor were preincubated for 15 minutes at 37° C. with purified tubulin. After the incubation period, the reaction was cooled and GTP was added to induce tubulin polymerization. Polymerization was then monitored in a Gilford spectrophotometer at 350 nm. The final reaction mixtures (0.25 ml) contained 1.5 mg/ml tubulin, 0.6 mg/ml microtubule-associated proteins (MAPs), 0.5 mM GTP, 0.5 mM MgCl2, 4% DMSO and 0.1M 4-morpholineethanesulfonate buffer (MES, pH 6.4). IC50 is the amount of inhibitor needed to inhibit tubulin polymerization 50% with respect to the amount of […] that occurs in the absence of inhibitor.

[1] = tested on: MHEC-5T hemangioendothelioma tumor; test: Inhibition of tumor blood flow, Fluorescent Bead Assay; assay type: in vivo, SCID mice; conditions: 24 hours post-treatment, vessel area per tumor tissue area as percentage of control
Experimental: The antivascular effects of the chromene phosphate prodrug were assessed in tumor-bearing mice using a Fluorescent Bead Assay. A MHEC-5T hemangioendothelioma tumor model was established by subcutaneous injection of 0.5×10^6 cultured transformed cell murine myocardial vascular endothelial cell line (“MHEC5-T”) cells into the right flank of Fox Chase CB-17 Severe Combined Immunodeficient (“SCID”) mice. […] At 24 hours post-treatment, mice were injected intravenously with 0.25 ml of diluted FluoSphere beads (1:6 in physiological saline) in the tail vein, sacrificed after 3 minutes, and tumor was excised for cryosectioning. Tumor cryosections at a thickness of 8 um were directly examined using quantitative fluorescent microscopy. Blood vessels were indicated by blue fluorescence from injected beads. For quantification, image analysis of 3 sections from three tumors treated in each group were examined and vascular shutdown was expressed as vessel area (mm^2) per tumor tissue area (mm^2) as a percentage of the control (“% VAPM”).

MCF-7 = test: Growth inhibition, MCF-7 breast cancer cells (SRB); assay type: cell-based; conditions: Homo sapiens, MCF7, 48 hours incubation, read-out: GI50 for Cell Line MCF-7
Experimental: (§1) Newly prepared compounds were evaluated for cytotoxic activity against a variety of cell lines derived from human tumors using an assay system similar to the National Cancer Institute procedure previously described (Monks et al, J. Natl. Cancer Inst., 1991). Briefly, the cell suspensions, diluted according to the particular cell type and the expected target cell density (5,000-40,000 cells per well based on cell growth characteristics), were added by pipet (100 μl) to 96-well microtiter plates. Inoculates were allowed a preincubation time of 24-28 hours at 37° C. for stabilization. Incubation with the inhibitor compounds lasted for 48 hours in […] atmosphere and 100% humidity. Determination of cell growth was performed by in situ fixation of cells, followed by staining with a protein-binding dye sulforhodamine B (SRB), which binds to the basic amino acids of cellular macromolecules. The solubilized stain was measured spectrophotometrically.
(§2) Several compounds were evaluated for cytotoxic activity against […] P388 leukemia cell lines. The effective dose or ED50 value (defined as the effective dosage required to inhibit 50% of cell growth) was measured. These and additional compounds were evaluated in terms of growth inhibitory activity against several other human cancer cell lines including: central nervous system (“CNS”, SF-268), pancreas (BXPC-3), non-small cell lung cancer (“lung-NCS”, NCI-H460), breast (MCF-7), colon (KM20L2), ovarian (OVCAR-3), and prostate (DU-145). The growth inhibition GI50(defined as the dosage required to inhibit tumor cell growth by 50%) is listed for each cell line.

P388 leukemia cell lines = test: In vitro cytotoxicity, P388 leukemia cells (SRB); assay type: cell-based; conditions: for IC50: P388, 48 hours incubation, read-out: ED50 for P-388 Cell Line
Experimental: as §1, §2

NCI-H460 = test: Growth inhibition, NCI-H460 non-small cell lung cancer cells (SRB); assay type: cell-based; conditions: Homo sapiens, 48 hours incubation, read-out: GI50 for Cell Line NCI-H460
Experimental: as §1, §2

SF-268 = test: Growth inhibition, SF-268 CNS cancer cells (SRB); assay type: cell-based; conditions: Homo sapiens, 48 hours incubation, read-out: GI50 for Cell Line SF-268
Experimental: as §1, §2

DU-145 = test: Growth inhibition, DU-145 prostate cancer cells (SRB); assay type: cell-based; conditions: Homo sapiens, 48 hours incubation, read-out: GI50 for Cell Line DU-145
Experimental: as §1, §2

BXPC-3 = test: Growth inhibition, BXPC-3 pancreas cancer cells (SRB); assay type: cell-based; conditions: Homo sapiens, 48 hours incubation, read-out: GI50 for Cell Line BXPC-3
Experimental: as §1, §2

KM20L2 = test: Growth inhibition, KM20L2 colon cancer cells (SRB); assay type: cell-based; conditions: Homo sapiens, KM-20L2, 48 hours incubation, read-out: GI50 for Cell Line KM20L2
Experimental: as §1, §2

| SMILES | IC50 (purified tubulin) [µM] | % VAPM at 10 mg/kg dose ([1]; 10 mg/kg single i.p.) [%] | % VAPM at 100 mg/kg dose ([1]; 100 mg/kg single i.p.) [%] | GI50 (MCF-7) [µg/mL] | ED50 for P-388 Cell Line (P388 leukemia cell lines; 48 hours incubation) [µg/mL] | IC50 (P388 leukemia cell lines) [µg/mL] | GI50 (NCI-H460) [µg/mL] | GI50 (SF-268) [µg/mL] | GI50 (DU-145) [µg/mL] | GI50 (BXPC-3) [µg/mL] | GI50 (KM20L2) [µg/mL] |
| --- | --- | --- | --- | --- | --- | --- | --- | --- | --- | --- | --- |
| COc1ccc2c(c1O)OCC(C(=O)c1cc(OC)c(OC)c(OC)c1)=C2 [Compound 5, 3-(3′,4′,5′-Trimethoxybenzoyl)-7-methoxy-8-hydroxy-2H-chromene] | 1 to 2 | 80 | 90 | 0.055 (≈ 0.148 µM) | – | – | – | – | – | – | – |
| COc1ccc2c(c1)OCC(C(=O)c1cc(OC)c(OC)c(OC)c1)=C2 [Compound 8, 3-(3′,4′,5′-Trimethoxybenzoyl)-7-methoxy-2H-chromene] | 4 to 10 | – | – | 0.27 (≈ 0.758 µM) | 2.04 | – | – | – | – | – | – |
| COc1cc2c(cc1O)C=C(C(=O)c1cc(OC)c(OC)c(OC)c1)CO2 [Compound 9, 3-(3′,4′,5′-Trimethoxybenzoyl)-6-hydroxy-7-methoxy-2H-chromene] | > 40 | – | – | 7.3 (≈ 19.6 µM) | – | 28.2 (≈ 75.7 µM) | 5.5 (≈ 14.8 µM) | > 10 | 3.9 (≈ 10.5 µM) | 7.1 (≈ 19.1 µM) | > 10 |
| COc1cc(C(=O)C2=Cc3ccc(OC)c(OC)c3OC2)cc(OC)c1OC [Compound 12, 3-(3′,4′,5′-Trimethoxybenzoyl)-7,8-dimethoxy-2H-chromene] | 20 | – | – | 0.48 (≈ 1.24 µM) | – | 0.41 (≈ 1.06 µM) | 0.37 (≈ 0.958 µM) | 0.34 (≈ 0.88 µM) | 0.16 (≈ 0.414 µM) | 0.46 (≈ 1.19 µM) | 0.4 (≈ 1.04 µM) |
| COc1cc2c(cc1OC)OCC(C(=O)c1cc(OC)c(OC)c(OC)c1)=C2 [Compound 13, 3-(3′,4′,5′-Trimethoxybenzoyl)-6,7-dimethoxy-2H-chromene] | 20 | – | – | 0.56 (≈ 1.45 µM) | – | 2.5 (≈ 6.47 µM) | 0.4 (≈ 1.04 µM) | 0.5 (≈ 1.29 µM) | 0.42 (≈ 1.09 µM) | 0.38 (≈ 0.983 µM) | 0.4 (≈ 1.04 µM) |
| COc1cc(OC)c2c(c1)OCC(C(=O)c1cc(OC)c(OC)c(OC)c1)=C2 [Compound 14, 3-(3′,4′,5′-Trimethoxybenzoyl)-5,7-dimethoxy-2H-chromene] | 20 | – | – | 0.47 (≈ 1.22 µM) | – | 16.3 (≈ 42.2 µM) | 0.4 (≈ 1.04 µM) | 0.4 (≈ 1.04 µM) | 0.24 (≈ 0.621 µM) | 0.43 (≈ 1.11 µM) | 0.37 (≈ 0.958 µM) |
| COc1cc(C(=O)C2=Cc3cccc(O)c3OC2)cc(OC)c1OC [Compound 15, 3-(3′,4′,5′-Trimethoxybenzoyl)-8-hydroxy-2H-chromene] | 2 to 4 | – | – | 0.21 (≈ 0.613 µM) | – | 0.093 (≈ 0.272 µM) | 0.044 (≈ 0.129 µM) | 0.048 (≈ 0.14 µM) | 0.026 (≈ 0.0759 µM) | 2.4 (≈ 7.01 µM) | 4 (≈ 11.7 µM) |
| COc1cc(C(=O)C2=Cc3cccc(OP(=O)(O)O)c3OC2)cc(OC)c1OC [Compound 16, 3-(3′,4′,5′-Trimethoxybenzoyl)-8-phosphate-2H-chromene disodium salt] | – | – | – | 0.45 | – | 0.019 | 0.12 | 0.058 | 0.046 | 1.6 | 5.4 |
| COc1cc(C(=O)C2=Cc3ccc(O)c(O)c3OC2)cc(OC)c1OC [Compound 17, 3-(3′,4′,5′-Trimethoxybenzoyl)-7,8-dihydroxy-2H-chromene] | 10 to 20 | – | – | 0.48 (≈ 1.34 µM) | – | 1.8 (≈ 5.02 µM) | 0.34 (≈ 0.949 µM) | 0.32 (≈ 0.893 µM) | 0.23 (≈ 0.642 µM) | 3 (≈ 8.37 µM) | 6.3 (≈ 17.6 µM) |
| COc1cc(C(=O)C2=Cc3ccc(OP(=O)(O)O)c(OP(=O)(O)O)c3OC2)cc(OC)c1OC [Compound 18, 3-(3′,4′,5′-Trimethoxybenzoyl)-7,8-diphosphate-2H-chromene tetrasodium salt] | > 40 | – | – | 4.2 | – | 0.56 | 3.5 | 3.4 | 2.2 | > 10 | > 10 |
